Measurements published in US8017620B2, “Dutpase inhibitors” (Medivir AB, priority 2004, dated 2011).
Read-outs that look alike come from different tables or passages of the source.

Tests used:
[1] = molecular target: T1, Plasmodium falciparum dUTPase (Plasmodium falciparum, UniProt Q8II92); assay: Inhibition of Plasmodium falciparum dUTPase (malaria enzyme assay); format: biochemical
T1 construct: made in house; host or cells: E. coli BL21 (DE3)
T1 sequence (Q8II92 1-173): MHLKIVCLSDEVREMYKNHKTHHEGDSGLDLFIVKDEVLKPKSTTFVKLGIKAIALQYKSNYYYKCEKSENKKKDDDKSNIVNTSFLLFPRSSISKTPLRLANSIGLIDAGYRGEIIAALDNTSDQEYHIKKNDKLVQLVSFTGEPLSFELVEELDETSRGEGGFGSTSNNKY
Method: Inhibition of Plasmodium falciparum dUTPase
2′-dUTP, was purchased from Pharmacia. MgCl2, BSA, and the pH indicator cresol red were from Sigma. The buffer N,N-bis(2-hydroxyethyl)glycine (BICINE) was obtained from USB (United States Biochemical), Ohio. All the concentrations of nucleotides were calculated spectrophotometrically (HP-8453, Hewlett Packard) at 280 nm, using the extinction coefficient (ε280 nm=1.75 ml mg^−1cm^−1). Other chemicals used in these experiments were of the highest quality available.
Conserved motifs of the human dUTPase enzyme were used as query to identify the PFdut gene in the www.tigr.org database of the Plasmodium falciparum 3D7 strain. The entire coding sequence was amplified by the PCR using as template cDNA and as primers the oligonucleotides ATG-PFdut ([…]) and TGA-PFdut ([…]) which were designed so that NdeI and BamHI restriction sites were introduced at the 5′ and 3′ ends for convenient cloning in the expression vector pET11 (Stratagene). The amplified product was cloned into pGEMT (Promega) and propagated in E. coli XL1B cells. In order to confirm the correct sequence after amplification, sequencing was performed using an Applied Biosystems Automated Sequencer, at the Analytical Services of the Instituto de Parasitología y Biomedicina “López Neyra”. These Services also supplied the oligonucleotides designed for the sequencing
Recombinant P. falciparum dUTPase was purified from E. coli BL21 (DE3) cells transformed with pET-PFdut. Pellets from a liter of culture were resuspended in a solution consisting of buffer A (20 mM MES pH 5.5, 50 mM NaCl, 1 mM DTT) plus the protease inhibitors 1 mM PMSF, 20 μg/ml leupeptin and 1 mM benzamidine. Purification was carried out in a cold room (4° C.). The soluble crude extract was obtained by sonication in a Vibra-cell (Sonics and Materials Inc. Danbury, Conn., USA) and centrifugation at 14000×g. The extract was loaded onto a phosphocellulose column (Whatman) pre-equilibrated with buffer A at a flow rate of 1 ml/min. After washing the column with 100 ml of buffer A, elution was performed using a linear NaCl gradient of 50 to 1000 mM. Peak fractions with a low concentration of contaminating protein, as judged by 15% SDS-PAGE gels, were pooled and then loaded and chromatographed on a Superdex 200 column at a flow rate of 0.5 ml/min. The column was equilibrated with buffer B (50 mM Bicine, 1 mM DTT, 10 mM MgCl2). Peak fractions were pooled and concentrated to about 5 mg/ml by ultrafiltration in a Centripep tube (Amicon) and stored at −80° C.
Nucleotide hydrolysis was monitored by mixing enzyme and substrate with a rapid kinetic accessory (Hi-Tech Scientific) attached to a spectrophotometer (Cary 50) and connected to a computer for data acquisition and storage. Protons, released through the hydrolysis of nucleotides, were neutralised by a pH indicator in a weak buffered medium with similar pKa and monitored spectrophotometrically at the absorbance peak of the basic form of the indicator. Absorbance changes were kept within 0.1 units. The indicator/buffer pair used was cresol red/BICINE ([…], pH 8, 573 nm). The measurements were performed at 25° C., and the solutions were previously degassed. […] Indicator absorbance changes corresponding to complete hydrolysis of nucleotides were recorded in the computer, and the kinetic parameters Vmax and Kmapp (or slope) were calculated by fitting the data to the integrated Michaelis-Menten equation (Segel, 1975). […]

[2] = molecular target: T2, Human recombinant dUTPase (Homo sapiens, UniProt P33316); assay: Human dUTPase assay; format: biochemical; conditions: human enzyme versus Plasmodium falciparum enzyme
T2 construct: made in house; host or cells: E. coli BL21 (DE3)
T2 sequence (P33316 112-252 limits assumed): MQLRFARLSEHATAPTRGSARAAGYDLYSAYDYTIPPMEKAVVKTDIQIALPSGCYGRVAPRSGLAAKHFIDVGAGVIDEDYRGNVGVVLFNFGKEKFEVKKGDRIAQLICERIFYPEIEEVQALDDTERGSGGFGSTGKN
Method: Human recombinant dUTPase was purified from E. coli BL21 (DE3) cells transformed with pETHudut (Dr. P. O. Nyman, Lund University). Purification was accomplished as described for the dUTPase above except that the last step in Superdex 200 was omitted. Likewise, conditions for enzyme assays were the same as described above except that the enzyme concentration was 50 nM.

[3] = test system: P. falciparum; assay: Malaria whole cell assay (3H-hypoxanthine incorporation); format: cell-based; conditions: Plasmodium falciparum cell culture; read-out: ED50 (the source's name)
Method: Two strains of P. falciparum are used in this study: The drug sensitive NF54 (an airport strain of unknown origin) and K1 (Thailand, chloroquine and pyrimethamine resistant). The strains are maintained in RPMI-1640 medium with 0.36 mM hypoxanthine supplemented with 25 mM HEPES, 25 mM NaHC03, neomycin (100 U/ml) and Albumax^R (lipid-rich bovine serum albumin) (GIBCO, Grand Island, N.Y.) (5 g/l), together with 5% washed human A+ erythrocytes. All cultures and assays are conducted at 37° C. under an atmosphere of 4% C02, 3% 02 and 93% N2. Cultures are kept in incubation chambers filled with the gas mixture. Subcultures are diluted to a parasitaemia of 0.1-0.5% and the medium changed daily.
Antimalarial activity is assessed using an adaptation of the procedures described by Desjardins et al. (Antimicrob. Agents Chemother. 16(6):710-8, 1979), and Matile and Pink (In: Lefkovits, I. and Pernis, B. (Eds.). Immunological Methods. Academic Press, San Diego, pp. 221-234, 1990).
After use the stocks are kept at −20° C. The compound is further diluted to the appropriate concentration using complete medium without hypoxanthine.
Assays are performed in sterile 96-well microtiter plates, each well containing 200 μl of parasite culture (0.15% parasitemia, 2.5% hematocrit) with or without serial drug solutions. Seven 2-fold dilutions are used covering a range from 5 μg/ml 0.078 μg/ml.
After 48 hours of incubation at 37° C., 0.5 μCi ^3H-hypoxanthine is added to each well. Cultures are incubated for a further 24 h before they are harvested onto glass-fiber filters and washed with distilled water. The radioactivity is counted using a Betaplate™ liquid scintillation counter (Wallac, Zurich, Switzerland). […] From the sigmoidal inhibition curves IC50 values are calculated.
K1 strain is used. The compounds are tested at 7 concentrations (5000 to 78 ng/ml). Artemisinin and chloroquine are included as reference drugs.
A new range of concentrations is chosen depending on the IC50 determined (e.g. 100 to 1.56 ng/ml) and the assay is carried out 2× independently.
The standard drugs are chloroquine and artemisinin which are run in the same assay.

[4] = molecular target: Leishmania dUTPase (Leishmania major, UniProt O15826); conditions: Hidalgo-Zarco and González-Pacanowska 2001; cited from earlier work
[5] = Plasmodium falciparum enzyme, read-out: Ki

Chain of Leishmania dUTPase (O15826 entry or part of it): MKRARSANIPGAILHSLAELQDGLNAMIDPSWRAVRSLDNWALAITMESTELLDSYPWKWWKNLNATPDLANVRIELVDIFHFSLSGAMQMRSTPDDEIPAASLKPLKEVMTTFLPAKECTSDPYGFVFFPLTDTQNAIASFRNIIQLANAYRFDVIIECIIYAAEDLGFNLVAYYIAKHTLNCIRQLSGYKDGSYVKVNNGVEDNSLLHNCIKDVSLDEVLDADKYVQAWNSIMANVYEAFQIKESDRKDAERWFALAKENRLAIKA

Row | SMILES | Ki [1] [nM] | SI (selectivity over the human enzyme) [2] | EC50 [3] [nM] | Ki [1, 5] [nM] | inhibition of Leishmania dUTPase [4]
1 | O=c1ccn(CCCCOC(c2ccccc2)(c2ccccc2)c2ccccc2)c(=O)[nH]1 | 1620 | 617 | 4900 | – | –
2 | O=c1ccn(CCCCCNC(c2ccccc2)(c2ccccc2)c2ccccc2)c(=O)[nH]1 | – | >233 | 2200 | 4290 | –
3 | O=c1ccn(COCCOC(c2ccccc2)(c2ccccc2)c2ccccc2)c(=O)[nH]1 | 670 | 25.3 | 900 | – | –
4 | O=c1ccn([C@H]2C[C@H](O)[C@@H](COP(=O)(O)NP(=O)(O)OP(=O)(O)O)O2)c(=O)[nH]1 [α-β-imido-dUTP] | – | – | – | – | Competitive inhibition
5 | O=c1ccn(CCCCO[Si](c2ccccc2)(c2ccccc2)c2ccccc2)c(=O)[nH]1 | 1690 | 226 | 430 | – | –
6 | O=c1ccn(CCCCNC(c2ccccc2)(c2ccccc2)c2ccccc2)c(=O)[nH]1 | – | 1111 | 3800 | 900 | –
7 | COc1ccc(C(OC[C@H]2O[C@@H](n3ccc(=O)[nH]c3=O)C[C@@H]2O)(c2ccccc2)c2ccc(OC)cc2)cc1 [5′-O-(4-4′-dimethoxytrityl)-2′-deoxyuridine] | – | – | – | – | no inhibition
